Experimental findings from US9803187B2 (priority 2014, dated 2017) are described below.

As usually defined, the IC50 is the concentration that gives 50% inhibition. One may read the Ki as a measure of affinity in units of concentration, obtained from inhibition or displacement. Read a high Ki as weaker binding.

The structures appear in SMILES notation. Where two headings read alike, the source gives them in different places.

For test [1], the target named is T1, SbnE (Staphylococcus aureus, UniProt Q2G1M9). Description: biochemical.
T1 sequence (Q2G1M9 whole entry): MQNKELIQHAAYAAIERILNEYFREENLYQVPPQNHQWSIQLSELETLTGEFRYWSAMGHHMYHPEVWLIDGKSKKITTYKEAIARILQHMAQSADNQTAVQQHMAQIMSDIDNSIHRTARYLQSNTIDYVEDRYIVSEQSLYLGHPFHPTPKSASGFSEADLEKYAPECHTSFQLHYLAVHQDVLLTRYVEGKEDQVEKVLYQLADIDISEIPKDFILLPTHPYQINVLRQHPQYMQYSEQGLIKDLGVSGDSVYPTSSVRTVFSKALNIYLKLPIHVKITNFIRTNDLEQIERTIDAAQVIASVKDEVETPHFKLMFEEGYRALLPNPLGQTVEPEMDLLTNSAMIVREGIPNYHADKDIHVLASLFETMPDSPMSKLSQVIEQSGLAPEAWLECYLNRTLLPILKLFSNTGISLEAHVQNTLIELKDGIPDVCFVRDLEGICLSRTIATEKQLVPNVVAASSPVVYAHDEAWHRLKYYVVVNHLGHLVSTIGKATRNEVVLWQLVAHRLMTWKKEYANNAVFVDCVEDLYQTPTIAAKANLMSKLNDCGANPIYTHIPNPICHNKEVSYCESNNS
Test [2] has as its target T2, AsbA (Bacillus anthracis, UniProt A0A0F7RJ52). Description: biochemical.
Test [3] concerns the target AsbB (Bacillus anthracis, UniProt Q81RQ8). Description: biochemical. It is filed as biochemical.
Test [4] has as its system S. aureus (Newman). Description: microbe, parasite or virus in culture. It is filed as cell-based. The following applies: for IC50: Staphylococcus aureus, NEWMAN, 8 h.
Test [5] relates to B. anthracis (Sterne 34F2). Description: microbe, parasite or virus in culture. Format: cell-based. The note with it: for IC50: Bacillus anthracis.
Test [6] has as its target T1, SbnE. Description: biochemical. It is filed as biochemical, S. aureus. The following applies: for Ki: inhibition constant (Ki) SbnE.
Test [7] deals with T2, AsbA. Description: biochemical. It is filed as biochemical, B. anthracis. The following applies: for Ki: inhibition constant (Ki) AsbA.
Test [8] relates to MRSA (USA 300). Description: microbe, parasite or virus in culture. It is filed as cell-based, methicillin-resistant Staphylococcus aureus. The note with it: Staphylococcus aureus.
In test [9] the test system is S. typhimurium. Description: microbe, parasite or virus in culture. Format: cell-based. The note with it: Salmonella enterica.
Test [10] concerns E. coli (MC 1061). Description: microbe, parasite or virus in culture. Format: cell-based. The following applies: Escherichia coli.
Test [11] relates to S. flexneri (BS103). Description: microbe, parasite or virus in culture. Format: cell-based. The following applies: Shigella flexneri.

Chain of AsbB (Q81RQ8 whole entry, looked up): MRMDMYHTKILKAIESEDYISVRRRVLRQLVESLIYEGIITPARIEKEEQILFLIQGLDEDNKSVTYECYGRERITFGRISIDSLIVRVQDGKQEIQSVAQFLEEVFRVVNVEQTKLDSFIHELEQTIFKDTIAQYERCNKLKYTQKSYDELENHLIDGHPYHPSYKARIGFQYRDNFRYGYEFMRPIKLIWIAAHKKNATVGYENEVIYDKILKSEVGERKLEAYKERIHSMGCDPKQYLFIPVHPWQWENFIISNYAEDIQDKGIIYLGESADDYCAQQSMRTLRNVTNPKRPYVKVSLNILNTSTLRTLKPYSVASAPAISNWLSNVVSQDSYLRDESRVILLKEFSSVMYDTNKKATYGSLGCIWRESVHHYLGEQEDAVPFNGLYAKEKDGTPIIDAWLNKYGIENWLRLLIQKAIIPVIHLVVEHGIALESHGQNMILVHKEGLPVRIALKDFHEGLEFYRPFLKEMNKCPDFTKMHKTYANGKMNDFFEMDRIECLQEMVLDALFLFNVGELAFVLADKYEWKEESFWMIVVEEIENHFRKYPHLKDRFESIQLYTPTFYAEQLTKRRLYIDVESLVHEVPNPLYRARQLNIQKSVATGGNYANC
T2 sequence (A0A0F7RJ52 whole entry, looked up): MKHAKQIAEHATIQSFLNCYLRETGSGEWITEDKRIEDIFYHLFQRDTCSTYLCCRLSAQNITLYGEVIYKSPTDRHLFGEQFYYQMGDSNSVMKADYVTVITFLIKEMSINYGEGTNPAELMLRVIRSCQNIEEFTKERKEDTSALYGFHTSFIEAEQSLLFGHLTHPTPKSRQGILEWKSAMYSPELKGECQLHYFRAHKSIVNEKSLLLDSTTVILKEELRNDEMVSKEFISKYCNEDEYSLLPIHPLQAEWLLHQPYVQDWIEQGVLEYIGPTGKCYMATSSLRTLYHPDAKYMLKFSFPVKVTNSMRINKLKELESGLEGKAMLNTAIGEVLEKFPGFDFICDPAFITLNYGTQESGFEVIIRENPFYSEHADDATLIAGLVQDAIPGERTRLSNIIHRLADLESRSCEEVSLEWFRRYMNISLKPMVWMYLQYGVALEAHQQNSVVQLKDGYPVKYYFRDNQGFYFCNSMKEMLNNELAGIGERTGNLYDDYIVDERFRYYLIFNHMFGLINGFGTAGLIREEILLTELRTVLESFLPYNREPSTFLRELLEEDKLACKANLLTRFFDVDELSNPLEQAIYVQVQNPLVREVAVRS

Turning to `CC(=O)[C@@H](C)C[C@@H](C)C[C@@H](C)CC[C@H](O)C[C@H](O)[C@H](CC(C)C)[C@H](O)c1cc(O)cc(O)c1` [BmcB, Baulamycin B], the IC50 was 19 µM in [1], 200 µM in test [2] and greater than 1000 µM in [3]. For the same compound, in test [3], the “inhibition against AsbB (in words)” value is given as “negligible”. In addition, the “potency against S. aureus (Newman) compared with BmcA (in words)” value in test [4] is “significantly less potent”. The “potency against B. anthracis (Sterne 34F2) compared with BmcA (in words)” value in test [5] is “significantly less potent”.
For the compound `CCC(=O)[C@@H](C)C[C@@H](C)C[C@@H](C)CC[C@H](O)C[C@H](O)[C@H](CC(C)C)[C@H](O)c1cc(O)cc(O)c1` [BmcA, Baulamycin A], the concentration for half-maximal inhibition (IC50) in test [1] is 4.8 µM; in test [2], 180 µM; in test [3], greater than 1000 µM; in test [4] (read-out: IDM IC50), 69 µM; in [4] (read-out: IRM IC50) it was 86 µM; in test [8] (read-out: IDM IC50), 130 µM. Besides, the IC50 is 130 µM in test [8] (read-out: IRM IC50); 110 µM in test [5] (read-out: IDM IC50); 120 µM in test [5] (read-out: IRM IC50); greater than 1000 µM in test [9] (read-out: IC50, iron-depleted conditions); greater than 1000 µM in [9] (read-out: IC50, iron-rich conditions); greater than 1000 µM in test [9] (read-out: IDM IC50). The IC50 in test [9] (read-out: IRM IC50) was greater than 1000 µM; in test [10] (read-out: IDM IC50), 4.2 µM; in test [10] (read-out: IRM IC50), 150 µM; in test [11] (read-out: IDM IC50), 20 µM; in test [11] (read-out: IRM IC50), 46 µM. Besides, the “inhibition against AsbB (in words)” value in [3] is on record as “negligible”. The “mechanism of inhibition of SbnE” value in [6] was “reversible, competitive”. In addition, the Ki was determined as 680 µM in [6] (ATP); 50 µM in [6] (citric acid); 210 µM in [6] (polyamine substrate); 230 µM in test [7] (ATP); 110 µM in [7] (citric acid); 170 µM in test [7] (polyamine substrate). Also, the “mechanism of inhibition of AsbA” value in test [7] is reported as “reversible, competitive”.
